Experimental data published in patent publication US20250171400A1, “AZA-HETEROCYCLYL CARBOXAMIDE AND RELATED COMPOUNDS AND THEIR USE IN TREATING MEDICAL CONDITIONS” (X-BIOTIX THERAPEUTICS, INC., priority 2021, published 2025).
≈ marks a conversion by molar mass, not a printed value. Where two headings read alike, the source gives them in different places.

Legend:
E. coli LpxC = E. coli LpxC (Escherichia coli (strain K12), UniProt P0A725); experiment: in vitro substrate deacetylation assay for inhibition of LpxC (ADDA analysis); type: biochemical; details: 5 nM E. coli LpxC, 2.5 μM substrate, 1 hour at room temperature
E. coli LpxC, sequence (P0A725 whole entry): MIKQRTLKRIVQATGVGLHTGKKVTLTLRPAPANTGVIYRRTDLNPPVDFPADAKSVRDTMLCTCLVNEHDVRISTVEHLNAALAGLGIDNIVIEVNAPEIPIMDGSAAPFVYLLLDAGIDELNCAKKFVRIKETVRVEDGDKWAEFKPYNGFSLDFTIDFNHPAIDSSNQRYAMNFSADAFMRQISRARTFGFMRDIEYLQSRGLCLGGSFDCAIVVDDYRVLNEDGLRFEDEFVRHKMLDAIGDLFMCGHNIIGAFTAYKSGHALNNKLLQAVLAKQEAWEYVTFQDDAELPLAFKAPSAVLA
Method: (§1) Exemplary compounds from the above Examples were tested for ability to inhibit LpxC activity using an in vitro substrate deacetylation assay with ADDA™ analysis. Assay procedures and results are described below.
Dilutions of test compound were pre-incubated with 5 nM P. aeruginosa or E. coli LpxC for 10 minutes at room temperature in 50 mM NaH2PO4, 500 mM sucrose, 0.2 mg/mL BSA, pH 7.2 and <1% DMSO. Reactions were initiated by the addition of 2× substrate (UDP-3-O—(R-3-hydroxydecanoyl)-N-acetylglucosamine, Carbosynth Ltd, UK, for P. aeruginosa LpxC and UDP-3-O—(R-3-hydroxymyristoyl)-N-acetylglucosamine, BOC Sciences, USA, for E. coli LpxC), in 50 mM NaH2PO4, 0.5 mg/mL BSA, pH 7.2, to a final concentration of 2.5 μM. Reactions proceeded for 1 hour at room temperature prior to quenching with and equal volume of 2% acetic acid.
For ADDA™ analysis, an aliquot of assay sample was withdrawn from each well of the 384-well plate and applied to a Hypercarb cartridge (Optimize Technologies, USA) under conditions designed to retain analytes of interest. Analytes were eluted using 1:1:2 acetone:acetonitrile:water containing 5 mM ammonium acetate then analysed by triple-quadrupole mass spectrometry. Mass spectrometry was carried out using electrospray ionization in negative ion mode. Daughter ion peaks representing detected substrate (P. aeruginosa: parent Q1 mass=775.8 amu, daughter Q3 mass=384.7 amu E. coli: parent Q1 mass=833.0 amu, daughter Q3 mass=385.0 amu, collision energy=analyte specific, dwell time=50 ms) were identified using a multiple-reaction monitoring protocol.
Total activity (0% inhibition) was obtained from reactions containing no compound, and 100% inhibition is defined as reactions in the presence of 1 μM CHIR-090 (N-[(1S,2R)-2-hydroxy-1-[(hydroxyamino)carbonyl]propyl]-4-[2-[4-(4-morpholinylmethyl)phenyl]ethynyl]-benzamide). For IC50 determinations, peak areas of the substrate and product were compared to compute the proportion of substrate reacted by the LpxC enzyme at each compound concentration. The fractional activity was converted to percentage inhibition and plotted against compound concentration in ActivityBase™ and fit using a four-parameter logistic using non-linear regression to yield the IC50 value.

P. aeruginosa LpxC = P. aeruginosa LpxC (Pseudomonas aeruginosa (strain ATCC 15692 / DSM 22644 / CIP 104116 / JCM 14847 / LMG 12228 / 1C / PRS 101 / PAO1), UniProt P47205); experiment: biochemical; type: biochemical; details: 5 nM P. aeruginosa LpxC, 2.5 μM substrate, 1 hour at room temperature
Method: as §1
For ADDA™ analysis, an aliquot of assay sample was withdrawn from each well of the 384-well plate and applied to a Hypercarb cartridge (Optimize Technologies, USA) under conditions designed to retain analytes of interest. Analytes were eluted using 1:1:2 acetone:acetonitrile:water containing 5 mM ammonium acetate then analysed by triple-quadrupole mass spectrometry. Mass spectrometry was carried out using electrospray ionization in negative ion mode.
For IC50 determinations, peak areas of the substrate and product were compared to compute the proportion of substrate reacted by the LpxC enzyme at each compound concentration.

[1] = tested on: E. coli BW25113 isogenic mutant deficient in acrA mediated efflux; experiment: broth microdilution minimum inhibition concentration assay; type: cell-based; details: Escherichia coli, BW25113, read-out: E. coli KO MIC
Method: (§2) Exemplary compounds from the above Examples were tested to determine their minimum inhibitory concentration (MIC) for exemplary strains of Eschericia and Pseudomonas bacteria using broth microdilution methods. Assay procedures and results are described below.
(§3) Broth microdilution assays were conducted according to Clinical and Laboratory Standards Institute guidelines (CLSI, M07-A11: Clinical and Laboratory Standards Institute. Methods for Dilution Antimicrobial Susceptibility Tests for Bacteria that Grow Aerobically; Approved Standard—11th Edition. Wayne, PA: CLSI, 2018.). Briefly, a 0.5 McFarland standard suspension was made from bacterial isolates on non-selective, solid media. The inocula were adjusted to give a bacterial concentration of 1×10^6 CFU/mL. Serial doubling-dilutions of each compound were prepared in cation-adjusted Mueller-Hinton broth (Sigma-Aldrich) in 96-well microdilution plates. A 50 μL aliquot of the inoculum was added to each microdilution plate and, within 15 minutes, incubated at 37° C. in air for 16-20 h. […] The test was controlled by the determination of piperacillin MIC against both E. coli ATCC 25922 and P. aeruginosa ATCC 27853 and ensuring accordance with the ranges published in CLSI supplementary document M100 (CLSI, M100Ed29: Clinical and Laboratory Standards Institute. Performance Standards for Antimicrobial Susceptibility Testing, 29th Edition. Wayne, PA: CLSI, 2018.).
(§4) Multiple enterobacteriaceae strains were tested, including E. coli ATCC 25922 and K. pneumoniae ATCC 43816. WT E. coli BW25113 was tested with an isogenic mutant deficient in acrA mediated efflux by clean deletion. WT P. aeruginosa PAO1 was tested with an isogenic mutant deficient in MexA mediated efflux by clean deletion.
(§5) Experimental results are provided in Table 4, which provides MIC values for wild-type E. coli BW25113 (“E. coli WT MIC”), an isogenic mutant deficient in acrA mediated efflux by clean deletion (“E. coli KO MIC”), wild-type P. aeruginosa PAO1 (“P. aeruginosa WT MIC”), and an isogenic mutant deficient in MexA mediated efflux by clean deletion (“[…]”).

[2] = tested on: P. aeruginosa PAO1 isogenic mutant deficient in MexA mediated efflux; experiment: as above; type: cell-based; details: Pseudomonas aeruginosa, PAO1, read-out: P. aeruginosa KO MIC
Method: as §2, §3, §4, §5

[3] = tested on: wild-type E. coli BW25113; experiment: as above; type: cell-based; details: Escherichia coli; wild-type E. coli BW25113, 37° C. 16-20 h; read-out: E. coli WT MIC
Method: as §2, §3, §4, §5

[4] = tested on: wild-type P. aeruginosa PAO1; experiment: as above; type: cell-based; details: Pseudomonas aeruginosa
Method: as §2, §3, §4, §5

[5] = wild-type P. aeruginosa PAO1, 37° C. 16-20 h, read-out: P. aeruginosa WT MIC
[6] = PAO1, read-out: P. aeruginosa WT MIC

SMILES	IC50 (E. coli LpxC)	IC50 (P. aeruginosa LpxC)	MIC [1]	MIC [2]	MIC [3]	MIC [4, 5]	MIC [4, 6]
CS(=O)(=O)N1C[C@H](NC(=O)[C@@H]2C[C@H](F)CN2)C[C@@H]1C(=O)NCc1ccc(C#Cc2ccc(CN3CCOCC3)cc2)cc1 [Example 9AI, (2R,4R)-4-((2S,4S)-4-Fluoropyrrolidine-2-carboxamido)-1-(methylsulfonyl)-N-(4-((4-(morpholinomethyl)phenyl)ethynyl)benzyl)pyrrolidine-2-carboxamide]	< 500 nM	< 50 nM	20 to 100 µM (≈ 12.2 to 61.2 µg/mL)	< 20 µM	> 100 µM	> 100 µM	–
CN(C)C(=O)N1C[C@H](NC(=O)[C@@H]2C[C@H](F)CN2)C[C@@H]1C(=O)NCc1ccc(C#Cc2ccc(CN3CCOCC3)cc2)cc1 [Example 9AH]	500 to 2500 nM	< 50 nM	20 to 100 µM (≈ 12.1 to 60.5 µg/mL)	< 20 µM	> 100 µM	> 100 µM	–
CC(C)C(=O)N1C[C@H](NC(=O)[C@@H]2C[C@H](O)CN2)C[C@@H]1C(=O)NCc1ccc(C#Cc2ccc(CN3CCOCC3)cc2)cc1 [Example 9T, (2R,4R)-4-((2S,4S)-4-Hydroxypyrrolidine-2-carboxamido)-1-isobutyryl-N-(4-((4-(morpholinomethyl)phenyl)ethynyl)benzyl)pyrrolidine-2-carboxamide]	2500 to 10000 nM	100 to 1000 nM	> 100 µM	> 100 µM	> 100 µM	–	> 100 µM
CNC(=O)N1C[C@H](NC(=O)[C@@H]2C[C@H](F)CN2)C[C@@H]1C(=O)NCc1ccc(C#Cc2ccc(CN3CCOCC3)cc2)cc1 [Example 9AR]	< 500 nM	< 50 nM	20 to 100 µM (≈ 11.8 to 59.1 µg/mL)	< 20 µM	> 100 µM	> 100 µM	–
NCCCC(=O)N1C[C@H](NC(=O)[C@@H]2C[C@H](F)CN2)C[C@@H]1C(=O)NCc1ccc(C#CC#CC2CC2)cc1 [Example 9O]	2500 to 10000 nM	50 to 100 nM	> 100 µM	> 100 µM	> 100 µM	–	> 100 µM
CC(C)C(=O)N1C[C@H](NC(=O)[C@@H]2C[C@@H](O)CN2)C[C@@H]1C(=O)NCc1ccc(C#CC#CC2CC2)cc1 [Example 9Z]	–	–	20 to 100 µM (≈ 9.81 to 49.1 µg/mL)	20 to 100 µM (≈ 9.81 to 49.1 µg/mL)	> 100 µM	–	> 100 µM
CC(C)C(=O)N1C[C@H](NC(=O)[C@@H]2C[C@@H](F)CN2)C[C@@H]1C(=O)NCc1ccc(C#Cc2ccccc2)cc1 [Example 9E]	–	–	> 100 µM	> 100 µM	> 100 µM	–	> 100 µM
CC(C)C(=O)N1C[C@H](NC(=O)[C@@H]2C[C@H](O)CN2)C[C@@H]1C(=O)NCc1ccc(C#CC#CC2CC2)cc1 [Example 9U]	–	–	> 100 µM	20 to 100 µM (≈ 9.81 to 49.1 µg/mL)	> 100 µM	–	> 100 µM
